Values of other authors, collected in PMC4667793 (Journal of medicinal chemistry, 2015).
Counter-ions that a name gives are not always drawn.

Target: MtBPL (Mycobacterium tuberculosis, UniProt I6YFP0)
Settings: binding MtBPL; cited from earlier work

Chain of MtBPL (I6YFP0 whole entry, looked up): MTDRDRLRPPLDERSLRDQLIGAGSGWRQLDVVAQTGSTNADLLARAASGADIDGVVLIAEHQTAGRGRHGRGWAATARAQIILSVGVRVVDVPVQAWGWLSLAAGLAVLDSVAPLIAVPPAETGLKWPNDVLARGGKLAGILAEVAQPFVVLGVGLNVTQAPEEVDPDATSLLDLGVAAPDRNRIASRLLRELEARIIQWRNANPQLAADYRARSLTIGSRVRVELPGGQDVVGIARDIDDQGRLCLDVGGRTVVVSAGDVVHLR

## Nc1ncnc2c1ncn2[C@@H]1O[C@H](CNS(=O)(=O)NC(=O)CCCC[C@@H]2SC[C@@H]3NC(=O)N[C@@H]32)[C@@H](O)[C@H]1O [Compound 14, 5′-[N-(D-biotinoyl)sulfamoyl]amino-5′-deoxyadenosine triethylammonium salt]
  times more tightly bound than biotin: more than 1,700 times
